From patent publication US10399971B2, “Compound for treating or preventing hyperuricemia or gout” (JIANGSU ATOM BIOSCIENCE AND PHARMACEUTICAL CO., LTD., priority 2015, dated 2019) come the findings set out here.

Assay type in all cases: cell-based
Assay [1] deals with human normal liver cell line L-02. The assay is described as follows: Cytotoxicity test on human normal liver cell line L-02 (Alamar Blue). The settings on record: L02, L-02 cells, 120 h incubation, cell viability, read-out: half inhibitory concentration (IC50) against L-02. Here is the method:
(§1) 2.1 The normal liver cell lines L-02 and WRL-68 were cultured with DMEM culture medium (containing 10% of fetal bovine serum, 100 U/mL of penicillin and 0.1 mg/mL of streptomycin) in an incubator under 5% CO2 at 37° C. until the cell density was about 90%, respectively.
(§2) 2.3 Tested compounds and benzbromarone at different concentration gradients were prepared by using the DMEM culture medium and added into wells at 100 μL/well as compounds wells. The DMEM culture medium was added into wells at 100 μL/well without tested compound as negative control wells.
(§3) This 10× Alamar Blue solution was diluted into 1× Alamar Blue solution with phenol red free DMEM culture medium before use.
(§4) 2.5 The cells were washed with PBS (0.1 M, pH=7.4) twice. The Alamar Blue solution was added into wells at 100 μL/well. 100 μL of Alamar Blue solution was added into wells without cells to serve as blank control wells. The 96-well plate was placed in an incubator under 5% CO2 at 37° C. for 3 h. Each concentration of compound was repeated three times during the test.
(§5) The fluorescence value of the cells containing compound is the F(test compound); the fluorescence value of the cells without compound as blank control is the F(blank control); the fluorescent value of the cells from negative control group is F(negative control). The average value and standard deviation of cell viability of three repeated concentrations was calculated by the following formula: […]
(§6) 2.7 The half inhibitory concentration (IC50) of the compound for the cells L-02 and WRL-68 was obtained from the cell viability by Prism Graph software.

In another assay the target is T1, hURAT1 (Homo sapiens, UniProt Q96S37).
T1 sequence (Q96S37 1-553): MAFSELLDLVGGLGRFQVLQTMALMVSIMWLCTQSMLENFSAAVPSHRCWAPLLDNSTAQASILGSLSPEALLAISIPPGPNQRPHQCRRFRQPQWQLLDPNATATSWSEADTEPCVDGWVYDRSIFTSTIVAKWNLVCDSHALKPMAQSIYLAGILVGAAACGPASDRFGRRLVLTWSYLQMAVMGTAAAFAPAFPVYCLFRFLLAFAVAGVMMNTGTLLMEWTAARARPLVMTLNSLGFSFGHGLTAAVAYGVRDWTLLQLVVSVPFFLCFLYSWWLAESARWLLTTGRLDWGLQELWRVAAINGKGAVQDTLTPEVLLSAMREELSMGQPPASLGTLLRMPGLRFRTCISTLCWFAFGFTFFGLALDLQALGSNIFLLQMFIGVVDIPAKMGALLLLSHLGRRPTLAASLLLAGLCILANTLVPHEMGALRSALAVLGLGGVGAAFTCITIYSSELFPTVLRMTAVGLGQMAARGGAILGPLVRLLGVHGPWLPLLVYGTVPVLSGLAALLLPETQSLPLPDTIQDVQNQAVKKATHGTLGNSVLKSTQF
The assay is described as follows: Inhibition assay of uric acid transport in HEK293-hURAT1 transfection cell line. The following applies: 500 nM, HEK293-hURAT1 transfection cell line, 14C-uric acid, average of three tests; for inhibition at 0.5 µM: read-out: Inhibitory rates of uric acid transport, ±SD (%). The procedure: 2.1 Construction of a HEK293 stable cell line with high expression of hURAT1: The plasmid pCMV6-hURAT1 was transfected into HEK293 cells, then the stable strain was obtained by the G418 (final concentration 500 μg/mL) resistance screening, which is the high expression of hURAT1 transporter membrane protein.
2.2 To a coated 24-well plate was added 200 μL of 0.1 mg/mL poly-lysine per well and the plate was left overnight. Poly-lysine was removed from wells. The wells were cleaned thoroughly with aseptic water and dried for use.
2.3 To the above coated 24 well plate was added HEK293-hURAT1 stable cells (2×10^5 cells per well). The cells was cultured at 37° C. under 5% CO2 for 3 days.
The solution was fully mixed to give HBSS buffer (pH value: 7.4). The buffer was stored at −20° C.
2.5 The HBSS buffer was warmed to 37° C. in a water bath. Washed cells with HBSS twice, added 160 μL of HBSS and 20 μL test compound per well. The final concentration of tested compound per well is 500 nM. The blank control well contains only 180 μL of HBSS without tested compound. The plate was placed at room temperature for 30 min.
2.6 To each well was added 20 μL of 50 μM ^14C-Uric acid. The plate was placed at room temperature for 20 min.
2.7 The solution in each well was removed and the cells in each well were washed with pre-cooled HBSS buffer. To each well was added 0.2 M NaOH to dissolve the cells. The solution containing cell fragments was collected and the right amount of scintillation liquid was added.
The formula for calculating the inhibitory rate of uric acid transport for compounds was shown as below: […]

For assay [2], the system named is human normal liver cell line WRL-68. The assay is described as follows: Cytotoxicity test on human normal liver cell line WRL-68 (Alamar Blue). The following applies: WRL68, WRL-68 cells, 120 h incubation, cell viability, read-out: half inhibitory concentration (IC50) against WRL-68. Here is the method:
as §1, §2, §3, §4, §5, §6

`CCc1nc2ccccn2c1C(=O)c1cc(Br)c(O)c(Br)c1` [Compound 4, (3,5-dibromo-4-hydroxyphenyl)(2-ethylimidazo[1,2-a]-pyridin-3-yl)methanone]: the IC50 in assay [1] and in assay [2] was greater than 100 µM each time. Also, at hURAT1, the inhibition at 0.5 µM amounted to 71.7 ± 1.84%.

As for `CCc1nc2ccccn2c1C(=O)c1cc(I)c(O)c(I)c1` [Compound 5, (2-ethylimidazo[1,2-a]pyridine-3-yl)(4-hydroxy-3,5-diiodophenyl)methanone], the IC50 in assay [1] and in assay [2] was greater than 100 µM throughout. Besides, the inhibition at 0.5 µM on hURAT1 turned out to be 63 ± 3.33%.

In the case of `CCc1nc2ccccn2c1C(=O)c1cc(Cl)c(O)c(I)c1` [Compound 9, (3-chloro-4-hydroxy-5-iodophenyl)(2-ethylimidazo[1,2-a]-pyridin-3-yl)methanone], the IC50 in assay [1] and in assay [2] was greater than 100 µM each time. In addition, the inhibition at 0.5 µM at hURAT1 was 60.6 ± 0.82%.

Turning to `CCc1nc2ccccn2c1C(=O)c1cc(Br)c(O)c(I)c1` [Compound 11, (3-bromo-4-hydroxy-5-iodophenyl)(2-ethylimidazo[1,2-a]-pyridine-3-yl)methanone], the inhibition at 0.5 µM on hURAT1 amounted to 63.5 ± 0.95%.

`CCc1nc2ccccn2c1C(=O)c1cc(C)c(O)c(I)c1` [Compound 12, (2-ethylimidazo[1,2-a]pyridine-3-yl)(4-hydroxy-3-iodo-5-methylphenyl)methanone]: the inhibition at 0.5 µM at hURAT1 is 56.24 ± 0.12%.

`CCc1nc2ccc(F)cn2c1C(=O)c1cc(Cl)c(O)c(Br)c1` [Compound 18, (3-bromo-5-chloro-4-hydroxyphenyl)(2-ethyl-6-fluoroimidazo[1,2-a]pyridine-3-yl)methanone]: the IC50 in assay [1] and in assay [2] was greater than 100 µM each time. Besides, the inhibition at 0.5 µM on hURAT1 stood at 65.4 ± 0.71%.

For `CCc1nc2ccc(F)cn2c1C(=O)c1cc(Cl)c(O)c(I)c1` [Compound 19, (3-chloro-4-hydroxy-5-iodophenyl)(2-ethyl-6-fluoroimidazo[1,2-a]pyridine-3-yl)methanone], the inhibition at 0.5 µM on hURAT1 was found to be 68.8 ± 2.83%.

Consider `CCc1nc2ccccn2c1C(=O)c1cc(Br)c(O)c(C(F)(F)F)c1` [Compound 29, (3-bromo-4-hydroxy-5-(trifluoromethyl)phenyl)-(2-ethylimidazo[1,2-a]pyridine-3-yl)methanone], for which, at hURAT1, the inhibition at 0.5 µM is 64.35 ± 0.12%.

As for `CCc1nc2ccc(C)cn2c1C(=O)c1cc(Br)c(O)c(Br)c1` [Compound 30, (3,5-dibromo-4-hydroxyphenyl)(2-ethyl-6-methylimidazo[1,2-a]pyridine-3-yl)methanone], on hURAT1, the inhibition at 0.5 µM was 68 ± 1.49%.

For the compound `CCc1nc2ccc(OC)cn2c1C(=O)c1cc(Br)c(O)c(Br)c1` [Compound 33, (3,5-dibromo-4-hydroxyphenyl)(2-ethyl-6-methoxyimidazo[1,2-a]pyridine-3-yl)methanone], the IC50 in assay [1] and in assay [2] was greater than 100 µM throughout. In addition, at hURAT1, the inhibition at 0.5 µM came out at 65.06 ± 0.39%.

In the case of `CCc1nc2ccccn2c1C(=O)c1cc(Br)c(O)c(C#N)c1` [Compound 38, 3-bromo-5-(2-ethylimidazo[1,2-a]pyridine-3-carbonyl)-2-hydroxybenzonitrile], the inhibition at 0.5 µM at hURAT1 worked out at 62.4 ± 0.72%.

Take `CCc1nc2ccccn2c1C(=O)c1cc(I)c(O)c(C#N)c1` [Compound 39, 5-(2-ethylimidazo[1,2-a]pyridine-3-carbonyl)-2-hydroxy-3-iodobenzonitrile]: the inhibition at 0.5 µM on hURAT1 was 64.1 ± 2.25%.

In the case of `CCCc1nc2ccccn2c1C(=O)c1cc(Br)c(O)c(Br)c1` [Compound 41, (3,5-dibromo-4-hydroxyphenyl)(2-propylimidazo[1,2-a]-pyridine-3-yl)methanone], the inhibition at 0.5 µM on hURAT1 was 55.5 ± 1.02%.

For the compound `[2H]c1ccc2nc(CC)c(C(=O)c3cc(Br)c(O)c(Br)c3)n2c1` [Compound 69, (6-deuterium-2-ethylimidazo[1,2-a]pyridine-3-yl)(3,5-dibromo-4-hydroxyphenyl)methanone], the “Inhibitory rates of uric acid transport, ±SD (%)” value on hURAT1 worked out at 71.10 ± 2.50%.
